From US8192962B2, “Processes for detecting toxic substances” (Daikin Industries, Ltd., priority 2001, dated 2012)

Test system: Metabolism protein genes
Experiment: DNA chip mRNA expression in yeast, metabolism protein genes (Table 7)
Type: cell-based, Saccharomyces cerevisiae S288C
How it was run: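 S. cerevisiae S288C grown at 25° C. in YPD to log phase, then exposed 2 h to a toxicant at a growth-inhibiting, non-lethal concentration; untreated cells as control. Poly(A) mRNA reverse-transcribed with Cy3-dUTP or Cy5-dUTP, hybridized >12 h at 65° C. to whole-genome yeast DNA chip; value = fluorescence ratio treated/untreated.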

With “manganese ethylenebis(dithiocarbamate) [(8)]” the “The level of expressed mRNA in the presence of chemical substance/The level of expressed mRNA in the absence of chemical substance” value (yeast gene YAL012W) was 0.7, the “The level of expressed mRNA in the presence of chemical substance/The level of expressed mRNA in the absence of chemical substance” value (yeast gene YAL038W) was 1.1 and the “level of expressed mRNA in the presence/in the absence of chemical substance” value (yeast gene YBR003W) was 0.9. The “level of expressed mRNA in the presence/in the absence of chemical substance” value (yeast gene YBR011C) was 1.3, the “level of expressed mRNA in the presence/in the absence of chemical substance” value (yeast gene YBR020W) was 1.0 and the “The level of expressed mRNA in the presence of chemical substance/The level of expressed mRNA in the absence of chemical substance” value (yeast gene YBR023C) was 0.5. The “The level of expressed mRNA in the presence of chemical substance/The level of expressed mRNA in the absence of chemical substance” value (yeast gene YBR029C) was 0.7, the “The level of expressed mRNA in the presence of chemical substance/The level of expressed mRNA in the absence of chemical substance” value (yeast gene YBR183W) was 1.0 and the “The level of expressed mRNA in the presence of chemical substance/The level of expressed mRNA in the absence of chemical substance” value (yeast gene YBR222C) was 0.6. For the same substance, the “The level of expressed mRNA in the presence of chemical substance/The level of expressed mRNA in the absence of chemical substance” value (yeast gene YBR256C) was 2.3, the “The level of expressed mRNA in the presence of chemical substance/The level of expressed mRNA in the absence of chemical substance” value (yeast gene YCL009C) was 1.1 and the “The level of expressed mRNA in the presence of chemical substance/The level of expressed mRNA in the absence of chemical substance” value (yeast gene YCL064C) was 2.4. The “level of expressed mRNA in the presence/in the absence of chemical substance” value (yeast gene YCR010C) was 0.8, the “level of expressed mRNA in the presence/in the absence of chemical substance” value (yeast gene YCR034W) was 0.9 and the “The level of expressed mRNA in the presence of chemical substance/The level of expressed mRNA in the absence of chemical substance” value (yeast gene YCR048W) was 0.8. The “The level of expressed mRNA in the presence of chemical substance/The level of expressed mRNA in the absence of chemical substance” value (yeast gene YCR098C) was 1.0, the “The level of expressed mRNA in the presence of chemical substance/The level of expressed mRNA in the absence of chemical substance” value (yeast gene YDR019C) was 0.7 and the “level of expressed mRNA in the presence/in the absence of chemical substance” value (yeast gene YDR050C) was 1.3. The “level of expressed mRNA in the presence/in the absence of chemical substance” value (yeast gene YDR073W) was 1.3, the “level of expressed mRNA in the presence/in the absence of chemical substance” value (yeast gene YDR123C) was 1.3 and the “level of expressed mRNA in the presence/in the absence of chemical substance” value (yeast gene YDR178W) was 0.9. The “level of expressed mRNA in the presence/in the absence of chemical substance” value (yeast gene YDR277C) was 1.7, the “level of expressed mRNA in the presence/in the absence of chemical substance” value (yeast gene YDR284C) was 0.9 and the “level of expressed mRNA in the presence/in the absence of chemical substance” value (yeast gene YDR345C) was 1.2. For the same substance, the “The level of expressed mRNA in the presence of chemical substance/The level of expressed mRNA in the absence of chemical substance” value (yeast gene YDR380W) was 0.2, the “level of expressed mRNA in the presence/in the absence of chemical substance” value (yeast gene YDR400W) was 1.4 and the “level of expressed mRNA in the presence/in the absence of chemical substance” value (yeast gene YDR408C) was 0.7. The “level of expressed mRNA in the presence/in the absence of chemical substance” value (yeast gene YDR483W) was 1.0, the “The level of expressed mRNA in the presence of chemical substance/The level of expressed mRNA in the absence of chemical substance” value (yeast gene YDR497C) was 0.6 and the “The level of expressed mRNA in the presence of chemical substance/The level of expressed mRNA in the absence of chemical substance” value (yeast gene YDR502C) was 0.9. For the same substance, the “The level of expressed mRNA in the presence of chemical substance/The level of expressed mRNA in the absence of chemical substance” value (yeast gene YDR516C) was 1.3, the “level of expressed mRNA in the presence/in the absence of chemical substance” value (yeast gene YEL063C) was 0.6 and the “level of expressed mRNA in the presence/in the absence of chemical substance” value (yeast gene YER015W) was 1.1. The “The level of expressed mRNA in the presence of chemical substance/The level of expressed mRNA in the absence of chemical substance” value (yeast gene YER026C) was 0.8, the “The level of expressed mRNA in the presence of chemical substance/The level of expressed mRNA in the absence of chemical substance” value (yeast gene YER053C) was 1.3 and the “The level of expressed mRNA in the presence of chemical substance/The level of expressed mRNA in the absence of chemical substance” value (yeast gene YER069W) was 1.5. For the same substance, the “level of expressed mRNA in the presence/in the absence of chemical substance” value (yeast gene YER081W) was 0.6, the “The level of expressed mRNA in the presence of chemical substance/The level of expressed mRNA in the absence of chemical substance” value (yeast gene YER096W) was 1.0 and the “level of expressed mRNA in the presence/in the absence of chemical substance” value (yeast gene YER120W) was 0.6. For the same substance, the “The level of expressed mRNA in the presence of chemical substance/The level of expressed mRNA in the absence of chemical substance” value (yeast gene YER178W) was 0.8, the “level of expressed mRNA in the presence/in the absence of chemical substance” value (yeast gene YFL011W) was 0.8 and the “The level of expressed mRNA in the presence of chemical substance/The level of expressed mRNA in the absence of chemical substance” value (yeast gene YFL014W) was 3.4. For the same substance, the “The level of expressed mRNA in the presence of chemical substance/The level of expressed mRNA in the absence of chemical substance” value (yeast gene YFL030W) was 1.6, the “The level of expressed mRNA in the presence of chemical substance/The level of expressed mRNA in the absence of chemical substance” value (yeast gene YFL031W) was 0.7 and the “The level of expressed mRNA in the presence of chemical substance/The level of expressed mRNA in the absence of chemical substance” value (yeast gene YFL056C) was 18.5. The “The level of expressed mRNA in the presence of chemical substance/The level of expressed mRNA in the absence of chemical substance” value (yeast gene YFL057C) was 18.0, the “The level of expressed mRNA in the presence of chemical substance/The level of expressed mRNA in the absence of chemical substance” value (yeast gene YFR047C) was 1.0 and the “level of expressed mRNA in the presence/in the absence of chemical substance” value (yeast gene YGL012W) was 0.8. The “The level of expressed mRNA in the presence of chemical substance/The level of expressed mRNA in the absence of chemical substance” value (yeast gene YGL022W) was 0.4, the “level of expressed mRNA in the presence/in the absence of chemical substance” value (yeast gene YGL115W) was 1.0 and the “The level of expressed mRNA in the presence of chemical substance/The level of expressed mRNA in the absence of chemical substance” value (yeast gene YGL126W) was 0.7. For the same substance, the “level of expressed mRNA in the presence/in the absence of chemical substance” value (yeast gene YGL205W) was 1.2, the “The level of expressed mRNA in the presence of chemical substance/The level of expressed mRNA in the absence of chemical substance” value (yeast gene YGL209W) was 1.1 and the “The level of expressed mRNA in the presence of chemical substance/The level of expressed mRNA in the absence of chemical substance” value (yeast gene YGL248W) was 0.8. For the same substance, the “The level of expressed mRNA in the presence of chemical substance/The level of expressed mRNA in the absence of chemical substance” value (yeast gene YGR037C) was 1.4, the “The level of expressed mRNA in the presence of chemical substance/The level of expressed mRNA in the absence of chemical substance” value (yeast gene YGR055W) was 1.1 and the “level of expressed mRNA in the presence/in the absence of chemical substance” value (yeast gene YGR096W) was 1.0. The “level of expressed mRNA in the presence/in the absence of chemical substance” value (yeast gene YGR191W) was 0.7, the “The level of expressed mRNA in the presence of chemical substance/The level of expressed mRNA in the absence of chemical substance” value (yeast gene YGR194C) was 1.2 and the “level of expressed mRNA in the presence/in the absence of chemical substance” value (yeast gene YGR204W) was 0.4. For the same substance, the “The level of expressed mRNA in the presence of chemical substance/The level of expressed mRNA in the absence of chemical substance” value (yeast gene YGR256W) was 2.2, the “The level of expressed mRNA in the presence of chemical substance/The level of expressed mRNA in the absence of chemical substance” value (yeast gene YGR282C) was 1.0 and the “level of expressed mRNA in the presence/in the absence of chemical substance” value (yeast gene YGR288W) was 1.0. For the same substance, the “level of expressed mRNA in the presence/in the absence of chemical substance” value (yeast gene YHR025W) was 0.8, the “The level of expressed mRNA in the presence of chemical substance/The level of expressed mRNA in the absence of chemical substance” value (yeast gene YHR111W) was 1.3 and the “level of expressed mRNA in the presence/in the absence of chemical substance” value (yeast gene YHR123W) was 0.8. For the same substance, the “The level of expressed mRNA in the presence of chemical substance/The level of expressed mRNA in the absence of chemical substance” value (yeast gene YHR137W) was 0.4, the “The level of expressed mRNA in the presence of chemical substance/The level of expressed mRNA in the absence of chemical substance” value (yeast gene YHR174W) was 1.2 and the “The level of expressed mRNA in the presence of chemical substance/The level of expressed mRNA in the absence of chemical substance” value (yeast gene YHR176W) was 1.3. For the same substance, the “level of expressed mRNA in the presence/in the absence of chemical substance” value (yeast gene YHR210C) was 1.3, the “level of expressed mRNA in the presence/in the absence of chemical substance” value (yeast gene YIL006W) was 0.6 and the “The level of expressed mRNA in the presence of chemical substance/The level of expressed mRNA in the absence of chemical substance” value (yeast gene YIL045W) was 1.1. For the same substance, the “The level of expressed mRNA in the presence of chemical substance/The level of expressed mRNA in the absence of chemical substance” value (yeast gene YIL107C) was 1.3, the “The level of expressed mRNA in the presence of chemical substance/The level of expressed mRNA in the absence of chemical substance” value (yeast gene YIL154C) was 0.6 and the “The level of expressed mRNA in the presence of chemical substance/The level of expressed mRNA in the absence of chemical substance” value (yeast gene YIL155C) was 1.0. For the same substance, the “The level of expressed mRNA in the presence of chemical substance/The level of expressed mRNA in the absence of chemical substance” value (yeast gene YIR034C) was 1.7, the “The level of expressed mRNA in the presence of chemical substance/The level of expressed mRNA in the absence of chemical substance” value (yeast gene YIR036C) was 1.0 and the “The level of expressed mRNA in the presence of chemical substance/The level of expressed mRNA in the absence of chemical substance” value (yeast gene YJL031C) was 1.8. For the same substance, the “The level of expressed mRNA in the presence of chemical substance/The level of expressed mRNA in the absence of chemical substance” value (yeast gene YJL068C) was 1.1, the “The level of expressed mRNA in the presence of chemical substance/The level of expressed mRNA in the absence of chemical substance” value (yeast gene YJL088W) was 1.3 and the “The level of expressed mRNA in the presence of chemical substance/The level of expressed mRNA in the absence of chemical substance” value (yeast gene YJL099W) was 1.0. For the same substance, the “level of expressed mRNA in the presence/in the absence of chemical substance” value (yeast gene YJL121C) was 1.0, the “level of expressed mRNA in the presence/in the absence of chemical substance” value (yeast gene YJL167W) was 1.5 and the “The level of expressed mRNA in the presence of chemical substance/The level of expressed mRNA in the absence of chemical substance” value (yeast gene YJL172W) was 0.7. For the same substance, the “level of expressed mRNA in the presence/in the absence of chemical substance” value (yeast gene YJL216C) was 1.9, the “The level of expressed mRNA in the presence of chemical substance/The level of expressed mRNA in the absence of chemical substance” value (yeast gene YJL219W) was 1.5 and the “level of expressed mRNA in the presence/in the absence of chemical substance” value (yeast gene YJR077C) was 0.8. The “The level of expressed mRNA in the presence of chemical substance/The level of expressed mRNA in the absence of chemical substance” value (yeast gene YJR137C) was 1.6, the “level of expressed mRNA in the presence/in the absence of chemical substance” value (yeast gene YJR143C) was 0.7 and the “The level of expressed mRNA in the presence of chemical substance/The level of expressed mRNA in the absence of chemical substance” value (yeast gene YJR148W) was 0.6.
